Calls of active or inactive are those of the source. The calls are words filed in the database; no cut-off is given here.
System: SARS-CoV-2
Experiment: Antiviral activity against SARS-CoV-2 infected in human A549 cells overexpressing ACE2 assessed as reduction in virus-induced cytopathic effect at 625 nM incubated for 1 hr followed by viral infection measured after 96 hrs by inverted microscopy
Format: functional, organism-based
Details: Severe acute respiratory syndrome coronavirus 2, time 97.0 hrs

Structure (SMILES): CC[C@H](C)[C@@H](C(=O)O[C@@H](CC(C)C)C(=O)N[C@@H](CC(C)C)C(=O)N[C@@H](C)/C=C/C(=O)N1C(=O)C=C(OC)[C@@H]1C)N(C)C [GALLINAMIDE A]
- Activity: Active
